Data from patent publication US10526316B2, “Quinoxaline and pyridopyrazine derivatives as PI3Kβ inhibitors” (Janssen Pharmaceutica NV, priority 2015, dated 2020).
Where a name gives a salt, the structure may show the parent alone.

Experiments:
kinase enzymes [1] = target: T1, kinase enzymes (Homo sapiens, UniProt P42336); experiment: Enzyme binding assay (KINOMEscan, DiscoveRx), further kinases of Table A; conditions: PIK3Cα_h
T1 construct: purchased DiscoveRx Corporation, San Diego (contract service, KINOMEscan)
Summary of the method: (§1)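 Affinity for each kinase was determined by KINOMEscan profiling.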

kinase enzymes [2] = target: T2, kinase enzymes (Homo sapiens, UniProt P48736); experiment: as above; conditions: PIK3Cγ_h
T2 construct: purchased DiscoveRx Corporation, San Diego (contract service, KINOMEscan)
Summary of the method: as §1

kinase enzymes [3] = target: T3, kinase enzymes (Homo sapiens, UniProt P42345); experiment: as above; conditions: MTOR_h
T3 construct: purchased DiscoveRx Corporation, San Diego (contract service, KINOMEscan)
Summary of the method: as §1

PI3Kδ = target: T4, PI3Kδ (Homo sapiens, UniProt O00329); experiment: Enzyme binding assay (KINOMEscan, DiscoveRx); conditions: PIK3Cδ_h
T4 construct: purchased DiscoveRx Corporation, San Diego (contract service, KINOMEscan)
T4 sequence (O00329 1-1044): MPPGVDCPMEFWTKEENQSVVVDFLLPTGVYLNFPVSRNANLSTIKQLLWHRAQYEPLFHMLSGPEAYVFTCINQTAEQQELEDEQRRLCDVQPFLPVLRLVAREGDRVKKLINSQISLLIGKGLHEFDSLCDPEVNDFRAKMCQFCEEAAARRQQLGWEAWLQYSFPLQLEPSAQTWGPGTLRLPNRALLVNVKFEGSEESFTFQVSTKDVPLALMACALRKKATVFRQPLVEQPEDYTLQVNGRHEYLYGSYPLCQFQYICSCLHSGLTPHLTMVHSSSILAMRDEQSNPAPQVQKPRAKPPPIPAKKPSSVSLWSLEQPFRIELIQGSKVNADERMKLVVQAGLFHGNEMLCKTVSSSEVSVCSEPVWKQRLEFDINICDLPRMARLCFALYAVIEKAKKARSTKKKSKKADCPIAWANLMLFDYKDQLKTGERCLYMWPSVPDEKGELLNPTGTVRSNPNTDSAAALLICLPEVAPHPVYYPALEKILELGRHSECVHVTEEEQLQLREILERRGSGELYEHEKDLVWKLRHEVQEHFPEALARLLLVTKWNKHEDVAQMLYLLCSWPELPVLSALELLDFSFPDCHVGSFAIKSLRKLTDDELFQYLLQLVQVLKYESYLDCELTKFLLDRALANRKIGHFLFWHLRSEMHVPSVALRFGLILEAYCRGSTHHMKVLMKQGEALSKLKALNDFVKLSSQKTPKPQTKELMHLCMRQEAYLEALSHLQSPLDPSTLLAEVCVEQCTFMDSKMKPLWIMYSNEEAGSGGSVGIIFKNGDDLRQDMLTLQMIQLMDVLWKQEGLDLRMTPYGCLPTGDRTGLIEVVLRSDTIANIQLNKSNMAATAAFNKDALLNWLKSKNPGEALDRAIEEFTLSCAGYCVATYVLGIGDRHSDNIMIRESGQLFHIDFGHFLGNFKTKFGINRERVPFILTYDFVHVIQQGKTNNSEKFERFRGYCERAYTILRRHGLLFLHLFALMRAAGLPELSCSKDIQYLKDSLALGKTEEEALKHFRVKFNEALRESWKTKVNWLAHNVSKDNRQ
Summary of the method: as §1

PI3Kβ = target: T5, PI3Kβ (Homo sapiens, UniProt P42338); experiment: Enzyme binding assay (KINOMEscan, DiscoveRx); conditions: PIK3Cβ_h, read-out: Kd PIK3Cβ_h
T5 construct: purchased DiscoveRx Corporation, San Diego (contract service, KINOMEscan)
Summary of the method: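 Values are Kd in nM, the binding constant of each inhibitor for the kinase, obtained from a KINOMEscan enzyme binding assay.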

[4] = test system: Akt phosphorylated at Ser473 in PC-3 cells; experiment: Cellular assay: phosphorylation of Akt at Ser473 in PC-3 cells (MSD ELISA); type: cell-based; conditions: Homo sapiens, PC-3, 1 h, PC-3 cells, 60 min compound incubation, MSD ELISA; read-out: IC50 pAkt_S473
Summary of the method: (§2)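 PC-3 cells were exposed to compound or 0.3% DMSO for 60 min at 37° C, 5% CO2, then lysed in ice-cold buffer. Phospho-Akt was captured on site-specific antibody-coated plates and detected with Sulfo-tag anti-total Akt by electrochemiluminescence. IC50 values came from five-concentration response curves.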

[5] = test system: Akt phosphorylated at Thr308 in PC-3 cells; experiment: Cellular assay: phosphorylation of Akt at Thr308 in PC-3 cells (MSD ELISA); type: cell-based; conditions: Homo sapiens, PC-3, 1 h, PC-3 cells, 60 min compound incubation, MSD ELISA; read-out: IC50 pAkt_Thr308
Summary of the method: as §2

T5 sequence (P42338 whole entry): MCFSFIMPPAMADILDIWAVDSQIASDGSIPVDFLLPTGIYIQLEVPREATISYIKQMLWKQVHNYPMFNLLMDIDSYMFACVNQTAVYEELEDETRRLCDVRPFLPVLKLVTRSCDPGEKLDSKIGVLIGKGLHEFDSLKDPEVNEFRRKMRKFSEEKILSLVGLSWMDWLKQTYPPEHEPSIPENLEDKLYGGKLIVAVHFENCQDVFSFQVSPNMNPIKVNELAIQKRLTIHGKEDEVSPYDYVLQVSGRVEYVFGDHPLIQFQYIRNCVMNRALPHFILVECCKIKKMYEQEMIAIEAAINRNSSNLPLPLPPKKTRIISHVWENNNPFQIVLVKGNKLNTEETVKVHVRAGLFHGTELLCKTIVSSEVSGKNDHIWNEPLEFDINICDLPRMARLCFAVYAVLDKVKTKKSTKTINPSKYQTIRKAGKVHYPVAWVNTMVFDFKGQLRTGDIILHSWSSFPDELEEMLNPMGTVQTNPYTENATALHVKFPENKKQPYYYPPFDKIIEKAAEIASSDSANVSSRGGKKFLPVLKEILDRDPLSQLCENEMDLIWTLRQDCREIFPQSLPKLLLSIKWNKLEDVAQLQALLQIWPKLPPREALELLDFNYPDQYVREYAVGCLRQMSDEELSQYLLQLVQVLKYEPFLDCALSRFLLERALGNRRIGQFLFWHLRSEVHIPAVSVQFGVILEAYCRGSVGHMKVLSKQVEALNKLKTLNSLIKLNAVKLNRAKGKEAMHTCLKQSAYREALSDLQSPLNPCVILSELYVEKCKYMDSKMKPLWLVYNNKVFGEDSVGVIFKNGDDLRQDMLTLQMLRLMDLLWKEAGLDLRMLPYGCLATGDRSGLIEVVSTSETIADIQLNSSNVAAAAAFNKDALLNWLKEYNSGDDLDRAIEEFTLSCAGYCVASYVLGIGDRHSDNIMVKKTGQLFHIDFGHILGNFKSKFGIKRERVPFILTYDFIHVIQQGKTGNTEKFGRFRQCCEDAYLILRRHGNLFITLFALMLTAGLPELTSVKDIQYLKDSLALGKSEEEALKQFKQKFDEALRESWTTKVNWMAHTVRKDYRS
T1 sequence (P42336 whole entry): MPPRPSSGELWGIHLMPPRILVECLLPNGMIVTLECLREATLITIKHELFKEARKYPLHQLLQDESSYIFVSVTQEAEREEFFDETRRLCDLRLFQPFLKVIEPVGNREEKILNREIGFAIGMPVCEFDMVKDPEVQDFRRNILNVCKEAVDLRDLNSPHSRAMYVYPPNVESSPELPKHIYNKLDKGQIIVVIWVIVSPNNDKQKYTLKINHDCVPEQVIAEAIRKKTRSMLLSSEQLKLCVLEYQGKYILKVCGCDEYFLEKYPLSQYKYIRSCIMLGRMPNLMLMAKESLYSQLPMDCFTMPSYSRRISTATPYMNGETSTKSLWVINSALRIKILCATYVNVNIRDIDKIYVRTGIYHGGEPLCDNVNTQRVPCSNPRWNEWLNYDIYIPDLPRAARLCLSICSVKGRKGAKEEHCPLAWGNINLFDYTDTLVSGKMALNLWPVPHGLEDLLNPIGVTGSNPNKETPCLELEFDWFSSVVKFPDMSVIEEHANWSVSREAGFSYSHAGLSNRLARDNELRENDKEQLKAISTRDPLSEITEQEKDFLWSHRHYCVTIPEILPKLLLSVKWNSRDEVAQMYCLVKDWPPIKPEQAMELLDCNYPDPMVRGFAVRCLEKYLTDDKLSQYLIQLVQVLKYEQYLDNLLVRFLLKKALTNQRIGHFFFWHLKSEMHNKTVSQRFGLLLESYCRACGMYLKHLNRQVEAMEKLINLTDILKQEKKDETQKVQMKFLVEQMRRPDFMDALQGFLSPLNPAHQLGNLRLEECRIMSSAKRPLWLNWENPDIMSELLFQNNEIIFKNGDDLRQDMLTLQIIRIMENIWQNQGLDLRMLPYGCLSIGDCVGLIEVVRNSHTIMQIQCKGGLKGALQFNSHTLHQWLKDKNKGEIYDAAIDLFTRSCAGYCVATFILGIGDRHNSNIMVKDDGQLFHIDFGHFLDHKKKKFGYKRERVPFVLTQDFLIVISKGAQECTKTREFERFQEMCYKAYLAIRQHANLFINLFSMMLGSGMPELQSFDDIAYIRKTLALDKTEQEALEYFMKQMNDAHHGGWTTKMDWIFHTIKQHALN
T2 sequence (P48736 whole entry): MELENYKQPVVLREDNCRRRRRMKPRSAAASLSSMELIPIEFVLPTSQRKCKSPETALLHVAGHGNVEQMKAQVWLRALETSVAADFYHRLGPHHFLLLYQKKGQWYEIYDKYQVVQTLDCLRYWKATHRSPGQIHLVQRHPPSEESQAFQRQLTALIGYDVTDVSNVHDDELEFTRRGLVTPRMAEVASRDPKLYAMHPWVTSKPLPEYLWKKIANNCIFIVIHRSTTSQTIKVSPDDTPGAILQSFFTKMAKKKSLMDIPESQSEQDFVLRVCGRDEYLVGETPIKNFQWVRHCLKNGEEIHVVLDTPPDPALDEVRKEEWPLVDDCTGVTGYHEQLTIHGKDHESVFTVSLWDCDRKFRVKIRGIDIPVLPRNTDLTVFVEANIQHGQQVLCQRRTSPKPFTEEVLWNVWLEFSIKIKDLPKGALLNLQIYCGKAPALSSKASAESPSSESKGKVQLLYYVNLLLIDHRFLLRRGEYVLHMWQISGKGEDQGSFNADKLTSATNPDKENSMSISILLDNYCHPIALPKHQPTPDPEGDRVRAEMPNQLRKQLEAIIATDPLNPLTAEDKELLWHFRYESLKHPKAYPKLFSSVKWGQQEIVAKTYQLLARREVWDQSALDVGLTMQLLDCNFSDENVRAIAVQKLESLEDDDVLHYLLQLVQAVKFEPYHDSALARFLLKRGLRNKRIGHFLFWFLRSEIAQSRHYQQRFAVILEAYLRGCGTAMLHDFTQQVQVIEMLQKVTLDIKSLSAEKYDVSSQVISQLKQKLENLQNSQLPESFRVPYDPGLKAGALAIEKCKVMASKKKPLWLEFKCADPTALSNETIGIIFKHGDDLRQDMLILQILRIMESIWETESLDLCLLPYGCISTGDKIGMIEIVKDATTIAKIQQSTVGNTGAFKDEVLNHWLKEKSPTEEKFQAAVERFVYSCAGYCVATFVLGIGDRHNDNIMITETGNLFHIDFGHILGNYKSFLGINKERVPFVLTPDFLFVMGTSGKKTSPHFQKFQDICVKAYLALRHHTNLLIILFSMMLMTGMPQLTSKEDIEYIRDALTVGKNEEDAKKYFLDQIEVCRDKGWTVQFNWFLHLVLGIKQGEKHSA

| SMILES | melting point [°C] | Kd (kinase enzymes [1]) [µM] | Kd (kinase enzymes [2]) [µM] | Kd (kinase enzymes [3]) [µM] | Kd (PI3Kδ) [µM] | Kd (PI3Kβ) [nM] | IC50 [4] [nM] | IC50 [5] [nM] |
| --- | --- | --- | --- | --- | --- | --- | --- | --- |
| C[C@@H](Nc1cc(F)cc(F)c1)c1cc(C(=O)NCCN(C)C)cc2ncc(N3CCOCC3)nc12 (as salt: HCl) [Compound 184a] | 80 |  |  |  |  |  |  |  |
| C[C@@H](Nc1cc(F)cc(F)c1)c1cc(C(=O)NCCN(C)C)cc2ncc(N3CCOCC3)nc12 (as salt: sulfonic acid salt) [Compound 184c] | 74 |  |  |  |  |  |  |  |
| C[C@@H](Nc1cc(F)cc(F)c1)c1cc(C(=O)NCCN(C)C)cc2ncc(N3CCOCC3)nc12 (as salt: sulfuric acid salt) [Compound 184b] | 270 |  |  |  |  |  |  |  |
| CC(Oc1ccc(F)c(F)c1)c1cc(C(=O)N2CCN3CCC[C@@H]3C2)cc2ncc(N3CCOCC3)nc12 (mixture of isomers) [Compound 375] | 80 | 18.6 | > 30.2 | > 30.2 | 2.19 | 117 |  |  |
| CC(Nc1cc(F)cc(F)c1)c1cc(CNCC(F)(F)F)cc2ncc(N3CCOCC3)nc12 (single isomer, unassigned) (as salt: HCl) (hydrate or solvate) [Compound 163] | 239 |  |  |  |  |  |  |  |
| CC(Nc1cc(F)cc(F)c1)c1cc(CN2CCO[C@@H](CO)C2)cc2ncc(N3CCOCC3)nc12 (single isomer, unassigned) (as salt: HCl) [Compound 193] | 80 |  |  |  |  |  |  |  |
| CC(Nc1cc(F)cc(F)c1)c1cc(CN2CCO[C@H](CO)C2)cc2ncc(N3CCOCC3)nc12 (single isomer, unassigned) (as salt: HCl) [Compound 194] | 80 |  |  |  |  |  |  |  |
| COC1CN(Cc2cc(C(C)Nc3cc(F)cc(F)c3)c3nc(N4CCOCC4)cnc3c2)CC1OC (single isomer, unassigned) (as salt: hydrochloride) [Compound 205] | 80 |  |  |  |  |  |  |  |
| CC(Oc1cc(F)cc(F)c1)c1cc(C(=O)NCCO)cc2ncc(N3CCOCC3)nc12 (single isomer, unassigned) [Compound 200] | 115 | > 30.2 | > 30.2 | > 30.2 | > 30.2 | 2400 |  |  |
| CC(Nc1cc(F)cc(F)c1)c1cc(C(=O)NC[C@H](C)O)cc2ncc(N3CCOCC3)nc12 (single isomer, unassigned) [Compound 246b] | 75 | > 30.2 | 6.17 | > 30.2 | > 30.2 | 16600 |  |  |
| COC(=O)c1cc(C(C)Nc2cccc(F)c2)c2nc(N3CCOCC3)cnc2c1 (single isomer, unassigned) [Compound 262a] | 199.7 | > 30.2 | > 30.2 | > 30.2 | 24.5 | 1780 |  |  |
| COC(=O)c1cc(C(C)Nc2cccc(F)c2)c2nc(N3CCOCC3)cnc2c1 (single isomer, unassigned) [Compound 262b] | 199.5 | > 30.2 | > 30.2 | > 30.2 | > 30.2 | 11500 |  |  |
| CC(C)NCCNC(=O)c1cc(C(C)Nc2cc(F)c(F)c(F)c2)c2nc(N3CCOCC3)cnc2c1 (single isomer, unassigned) [Compound 283b] | 170 | > 30.2 | 29.5 | > 30.2 | 18.2 | 1380 |  |  |
| CC(Nc1cccc(F)c1)c1cc(C(=O)N2CCC[C@H](O)C2)cc2ncc(N3CCOCC3)nc12 (single isomer, unassigned) [Compound 320b] | 136 | 11.5 | > 30.2 | > 30.2 | 5.13 | 69 |  |  |
| CC(Nc1cccc(F)c1)c1cc(C(=O)N2CC[C@@H](O)C2)cc2ncc(N3CCOCC3)nc12 (single isomer, unassigned) [Compound 321b] | 128 | 18.6 | > 30.2 | > 30.2 | 7.41 | 166 |  |  |
| Cc1ccc(NC(C)c2cc(C(=O)NCCN(C)C)cc3ncc(N4CCOCC4)nc23)cc1F (single isomer, unassigned) [Compound 407a] | 115 | 2.04 | 7.94 | 10.5 | 0.724 | 7 |  |  |
| Cc1ccc(NC(C)c2cc(C(=O)NCCN(C)C)cc3ncc(N4CCOCC4)nc23)cc1F (single isomer, unassigned) [Compound 407b] | 105 | 4.37 | 3.8 | > 30.2 | 2.95 | 339 |  |  |
| [2H]C([2H])(O)C([2H])([2H])NC(=O)c1cc(C(C)Nc2cccc(F)c2)c2nc(N3CCOCC3)cnc2c1 (single isomer, unassigned) [Compound 408a] | 127 | 1.44 | 4.27 | 26.3 | 0.331 | 3 |  |  |
| [2H]C([2H])(O)C([2H])([2H])NC(=O)c1cc(C(C)Nc2cccc(F)c2)c2nc(N3CCOCC3)cnc2c1 (single isomer, unassigned) [Compound 408b] | 123 | 23.4 | 8.13 | > 30.2 | 17.4 | 324 |  |  |
| CC1CN(C(=O)c2cc(C3CCCN3c3cc(F)cc(F)c3)c3nc(N4CCOCC4)cnc3c2)CC(C)N1 (stereo not shown) [Compound 39] | 80 |  |  |  |  |  |  |  |
| CC(Nc1cc(F)cc(F)c1)c1cc(C(=O)NCCN(C)C)cc2ncc(N3CCOCC3)nc12 (stereo not shown) [Compound 183] | 145 | 2.51 | 1.74 |  |  | 0.1 | 6 | 3 |
| C[C@@H](Nc1cc(F)cc(F)c1)c1cc(C(=O)NCCN(C)C)cc2ncc(N3CCOCC3)nc12 [Compound 184] | 157 | 0.599 | 0.994 | 18.9 |  | 0.2 | 2 | 2 |
| C[C@H](Nc1cc(F)cc(F)c1)c1cc(C(=O)NCCN(C)C)cc2ncc(N3CCOCC3)nc12 [Compound 185] | 152 | 5.75 | 4.27 |  |  | 29 | ~331 | 148 |
| COC(=O)c1cc(C(C)Nc2cc(F)c(F)c(F)c2)c2nc(N3CCOCC3)cnc2c1 (stereo not shown) [Compound 266] | 220 |  |  |  |  |  |  |  |
| COC(=O)c1cc(C(C)Nc2ccc(C)c(F)c2)c2nc(N3CCOCC3)cnc2c1 (stereo not shown) [Compound 293] | 186 | > 30.2 | > 30.2 | > 30.2 | > 30.2 | > 30200 |  |  |
| CC(Nc1ccc(F)c(F)c1)c1cc(C(=O)NC2CCNC2)cc2ncc(N3CCOCC3)nc12 (stereo not shown) [Compound 325a] | 144 | 10.7 | 14.1 | > 30.2 | 11.5 | 1320 |  |  |
| Cc1c(F)cccc1NCc1cc(C(=O)NCCN(C)C)cc2ncc(N3CCOCC3)nc12 [Compound 328] | 98 |  |  |  |  |  | 9 | 9 |
| CCOC(=O)CNC(=O)c1cc(C(C)Nc2cccc(F)c2)c2nc(N3CCOCC3)cnc2c1 (stereo not shown) [Compound 392a] | 80 | 3.98 | 14.1 | 20.4 | 2.82 | 21 |  |  |
